{"source": "patent US9776972B2", "about": "“Pyrazole derivatives as arginine methyltransferase inhibitors and uses thereof” (priority 2013, dated 2017)", "key": {"human PRMT8": {"target": "human PRMT8 (Homo sapiens, UniProt Q9NR22)", "sequence (Q9NR22 whole entry)": "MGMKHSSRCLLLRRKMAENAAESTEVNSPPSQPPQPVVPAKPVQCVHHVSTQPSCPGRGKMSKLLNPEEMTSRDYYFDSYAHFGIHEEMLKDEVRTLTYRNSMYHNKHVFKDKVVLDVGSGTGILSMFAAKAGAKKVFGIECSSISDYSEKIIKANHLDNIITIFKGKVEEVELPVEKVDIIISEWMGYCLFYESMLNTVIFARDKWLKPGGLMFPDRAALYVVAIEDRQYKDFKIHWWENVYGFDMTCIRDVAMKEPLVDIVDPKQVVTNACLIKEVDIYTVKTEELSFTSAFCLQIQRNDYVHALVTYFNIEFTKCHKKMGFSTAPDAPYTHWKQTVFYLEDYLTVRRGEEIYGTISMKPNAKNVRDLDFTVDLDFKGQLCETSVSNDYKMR", "assay": "PRMT8 Biochemical Assay (3H-SAM Flashplate, peptide substrate)", "conditions": "single experiment or average of multiple experiments", "text": "(§1) S-adenosylmethionine (SAM), S-adenosylhomocysteine (SAH), bicine, Tween20, dimethylsulfoxide (DMSO), bovine skin gelatin (BSG), isopropyl-β-D-thiogalactopyranoside (IPTG), and Tris(2-carboxyethyl)phosphine hydrochloride solution (TCEP) were purchased from Sigma-Aldrich at the highest level of purity possible. ^3H-SAM was purchase from American Radiolabeled Chemicals with a specific activity of 80 Ci/mmol. 384-well streptavidin Flashplates were purchased from PerkinElmer.\nPeptide representative of human histone H4 residues 31-45 was synthesized with an N-terminal linker-affinity tag motif and a C-terminal amide cap by 21st Century Biochemicals.\nE. coli (BL21(DE3) Gold, Stratagene) made competent by the CaCl2 method were transformed with the PRMT8 construct and ampicillin selection. Protein over-expression was accomplished by growing the PRMT8 expressing E. coli clone and inducing expression with 0.3 mM IPTG at 16° C. The culture was grown for 12 hours, harvested by centrifugation, and stored at −80° C. for purification.\nGST-tagged PRMT8 was eluted with 50 mM Tris, 2 mM glutathione, pH 7.8. Pooled fractions were cleaved by thrombin (10 U) and dialysed in buffer A. GST was removed by reloading the cleaved protein sample onto glutathione sepharose column and PRMT8 was collected in the flow-through fractions. PRMT8 was purified further by ceramic hydroxyapatite chromatography. The column was washed with 50 mM phosphate buffer, 100 mM NaCl, 5% glycerol, 5 mM β-mercaptoethanol, pH 7.8 and PRMT8 was eluted by 100 mM phosphate in the same buffer. Protein was concentrated and buffer was exchanged to 50 mM Tris, 300 mM NaCl, 10% glycerol, 5 mM β-mercaptoethanol, pH 7.8 by ultrafiltration.\nGeneral Procedure for PRMT8 Enzyme Assays on Peptide Substrates.\n(§2) The assays were all performed in a buffer consisting of 20 mM Bicine (pH=7.6), 1 mM TCEP, 0.005% BSG, and 0.002% Tween 20, prepared on the day of use. […] DMSO (1 ul) was added to Columns 11, 12, 23, 24, rows A-H for the maximum signal control and 1 ul of SAH, a known product and inhibitor of PRMT8, was added to columns 11, 12, 23, 24, rows I-P for the minimum signal control. A cocktail (40 ul) containing the PRMT8 enzyme was added by Multidrop Combi (Thermo-Fisher). The compounds were allowed to incubate with PRMT8 for 30 min at room temperature, then a cocktail (10 ul) containing ^3H-SAM and peptide was added to initiate the reaction (final volume=51 ul). […] The assays were stopped by the addition of non-radiolabeled SAM (10 ul) to a final concentration of 400 uM, which dilutes the ^3H-SAM to a level where its incorporation into the peptide substrate is no longer detectable. 50 ul of the reaction in the 384-well polypropylene plate was then transferred to a 384-well Flashplate and the biotinylated peptides were allowed to bind to the streptavidin surface for at least 1 hour before being washed once with 0.1% Tween20 in a Biotek ELx405 plate washer. The plates were then read in a PerkinElmer TopCount plate reader to measure the quantity of ^3H-labeled peptide bound to the Flashplate surface, measured as disintegrations per minute (dpm) or alternatively, referred to as counts per minute (cpm).\n(§3) Where dpm=disintegrations per minute, cmpd=signal in assay well, and min and max are the respective minimum and maximum signal controls.\n(§4) Where top and bottom are the normally allowed to float, but may be fixed at 100 or 0 respectively in a 3-parameter fit. The Hill Coefficient normally allowed to float but may also be fixed at 1 in a 3-parameter fit. Y is the % inhibition and X is the compound concentration."}, "human PRMT6": {"target": "T1, human PRMT6 (Homo sapiens, UniProt Q96LA8)", "T1 construct": "Flag-PRMT6-His; made in house; host or cells: HEK 293F cells (BacMam baculovirus)", "T1 sequence (Q96LA8 with tags, fused parts or gaps)": "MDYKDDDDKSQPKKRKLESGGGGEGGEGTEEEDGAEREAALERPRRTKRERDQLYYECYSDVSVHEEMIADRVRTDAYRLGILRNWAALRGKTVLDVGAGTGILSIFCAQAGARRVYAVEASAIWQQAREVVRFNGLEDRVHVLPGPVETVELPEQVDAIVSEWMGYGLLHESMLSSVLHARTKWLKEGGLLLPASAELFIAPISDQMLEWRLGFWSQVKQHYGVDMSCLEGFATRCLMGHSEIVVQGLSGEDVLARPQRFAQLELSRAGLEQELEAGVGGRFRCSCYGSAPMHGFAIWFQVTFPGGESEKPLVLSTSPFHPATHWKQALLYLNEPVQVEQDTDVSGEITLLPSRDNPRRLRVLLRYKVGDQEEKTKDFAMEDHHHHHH", "assay": "PRMT6 Biochemical Assay (3H-SAM Flashplate, peptide substrate)", "conditions": "Biochemical IC50 PRMT6, single experiment or average of multiple experiments", "text": "as §1, with “sodium butyrate” for “isopropyl-β-D-thiogalactopyranoside (IPTG),”\nPeptide representative of human histone H4 residues 36-50 was synthesized with an N-terminal linker-affinity tag motif and a C-terminal amide cap by 21st Century Biochemicals.\nThe amplified gene was subcloned into pFastBacMam (Viva Biotech).\nRecombinant baculovirus were generated according to Bac-to-Bac kit instructions (Life Technologies). […] Infections were carried out at 37° C. for 48 hours, harvested by centrifugation, and stored at −80° C. for purification.\nColumn was washed with 20 mM imidazole in the same buffer and Flag-PRMT6-His was eluted with 150 mM imidazole. […] Flag-PRMT6-His was eluted with 200 ug/ml FLAG peptide in the same buffer. Pooled fractions were dialysed in 20 mM Tris, 150 mM NaCl, 10% glycerol and 5 mM β-mercaptoethanol, pH 7.8.\nGeneral Procedure for PRMT6 Enzyme Assays on Peptide Substrates.\nas §2, with “of PRMT6,” for “of PRMT8,”, “the PRMT6” for “the PRMT8”, “with PRMT6” for “with PRMT8”, “containing SAM” for “containing ^3H-SAM”\nas §3, §4"}, "human PRMT1": {"target": "T2, human PRMT1 (Homo sapiens, UniProt Q99873)", "T2 construct": "GST-tagged PRMT1; made in house; host or cells: High Five insect cells (baculovirus)", "T2 sequence (Q99873 with tags, fused parts or gaps)": "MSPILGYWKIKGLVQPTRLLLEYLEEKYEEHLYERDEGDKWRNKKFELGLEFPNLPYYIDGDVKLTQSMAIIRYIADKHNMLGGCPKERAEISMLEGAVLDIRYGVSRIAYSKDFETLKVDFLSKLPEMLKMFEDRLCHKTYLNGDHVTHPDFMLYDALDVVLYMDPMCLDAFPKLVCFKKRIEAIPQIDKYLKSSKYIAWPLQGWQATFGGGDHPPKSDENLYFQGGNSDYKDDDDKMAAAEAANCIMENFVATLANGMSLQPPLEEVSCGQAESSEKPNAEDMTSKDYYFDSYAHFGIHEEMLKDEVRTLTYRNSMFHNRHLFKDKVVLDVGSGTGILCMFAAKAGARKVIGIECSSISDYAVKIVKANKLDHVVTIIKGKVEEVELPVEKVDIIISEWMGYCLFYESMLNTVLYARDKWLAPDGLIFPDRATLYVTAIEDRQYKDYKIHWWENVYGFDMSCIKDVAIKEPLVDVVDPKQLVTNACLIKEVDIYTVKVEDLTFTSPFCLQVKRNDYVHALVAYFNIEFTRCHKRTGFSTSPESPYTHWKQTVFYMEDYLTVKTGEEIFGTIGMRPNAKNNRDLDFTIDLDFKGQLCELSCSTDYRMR", "assay": "PRMT1 Biochemical Assay (3H-SAM Flashplate, peptide substrate)", "conditions": "single experiment or average of multiple experiments", "text": "as §1, with “(BSG),” for “(BSG), isopropyl-β-D-thiogalactopyranoside (IPTG),”\nRecombinant baculovirus were generated according to Bac-to-Bac kit instructions (Life Technologies). […] Infections were carried out at 27° C. for 48 hours, harvested by centrifugation, and stored at −80° C. for purification.\nGST-tagged PRMT1 was eluted with 50 mM Tris, 2 mM glutathione, pH 7.8, dialysed in buffer A and concentrated to 1 mg/mL.\nGeneral Procedure for PRMT1 Enzyme Assays on Peptide Substrates.\nas §2, with “of PRMT1,” for “of PRMT8,”, “the PRMT1” for “the PRMT8”, “with PRMT1” for “with PRMT8”, “containing SAM” for “containing ^3H-SAM”, “of 300” for “of 400”\nas §3, §4"}}, "data": [{"compound": "CNCCN(C)Cc1c[nH]nc1-c1ccccc1Oc1ccccc1", "note": "[Compound 36]", "values": [{"measurement": "IC50", "setting": "human PRMT8", "result": 22.4, "unit": "µM"}, {"measurement": "IC50", "setting": "human PRMT6", "result": 2.44, "unit": "µM"}]}, {"compound": "CNCCN(C)Cc1c[nH]nc1-c1ccccc1OC(F)(F)F", "note": "[Compound 40]", "values": [{"measurement": "IC50", "setting": "human PRMT8", "result": 6.76, "unit": "µM"}, {"measurement": "IC50", "setting": "human PRMT6", "result": 0.68, "unit": "µM"}, {"measurement": "IC50", "setting": "human PRMT1", "result": 0.7, "unit": "µM"}]}, {"compound": "CNCCN(C)Cc1c[nH]nc1-c1cc(Cl)ccc1OC", "note": "[Compound 53]", "values": [{"measurement": "IC50", "setting": "human PRMT8", "result": 12.8, "unit": "µM"}, {"measurement": "IC50", "setting": "human PRMT6", "result": 0.968, "unit": "µM"}, {"measurement": "IC50", "setting": "human PRMT1", "result": 3.16, "unit": "µM"}]}, {"compound": "CNCCN(C)Cc1c[nH]nc1-c1cccc(OC)c1OC", "note": "[Compound 54]", "values": [{"measurement": "IC50", "setting": "human PRMT8", "result": 7.5, "unit": "µM"}, {"measurement": "IC50", "setting": "human PRMT6", "result": 0.182, "unit": "µM"}, {"measurement": "IC50", "setting": "human PRMT1", "result": 0.569, "unit": "µM"}]}, {"compound": "CCNCCN(C)Cc1c[nH]nc1-c1ccc(F)cc1", "note": "[Compound 60]", "values": [{"measurement": "IC50", "setting": "human PRMT8", "result": 1.54, "unit": "µM"}, {"measurement": "IC50", "setting": "human PRMT6", "result": 0.0532, "unit": "µM"}, {"measurement": "IC50", "setting": "human PRMT1", "result": 0.17, "unit": "µM"}]}, {"compound": "CN(CCN)Cc1c[nH]nc1-c1cc(F)ccc1Cl", "note": "[Compound 106]", "values": [{"measurement": "IC50", "setting": "human PRMT8", "result": 3.11, "unit": "µM"}, {"measurement": "IC50", "setting": "human PRMT6", "result": 0.0498, "unit": "µM"}, {"measurement": "IC50", "setting": "human PRMT1", "result": 0.336, "unit": "µM"}]}, {"compound": "CN(CCN)Cc1cnn(CC(O)CO)c1-c1ccc(F)cc1", "note": "(centres unmarked) [Compound 113]", "values": [{"measurement": "IC50", "setting": "human PRMT8", "result": 8.52, "unit": "µM"}, {"measurement": "IC50", "setting": "human PRMT6", "result": 0.594, "unit": "µM"}, {"measurement": "IC50", "setting": "human PRMT1", "result": 1.49, "unit": "µM"}]}, {"compound": "CC(C)CC(=O)N1CCN(c2ccc(-c3n[nH]cc3CN(C)CCN)cc2)CC1", "note": "[Compound 180]", "values": [{"measurement": "IC50", "setting": "human PRMT8", "result": 5.79, "unit": "µM"}, {"measurement": "IC50", "setting": "human PRMT6", "result": 0.0205, "unit": "µM"}, {"measurement": "IC50", "setting": "human PRMT1", "result": 0.648, "unit": "µM"}]}, {"compound": "CN(CCNC1CC1)Cc1c[nH]nc1-c1ccc(C#N)cc1", "note": "[Compound 183]", "values": [{"measurement": "IC50", "setting": "human PRMT8", "result": 4.82, "unit": "µM"}, {"measurement": "IC50", "setting": "human PRMT6", "result": 0.26, "unit": "µM"}, {"measurement": "IC50", "setting": "human PRMT1", "result": 2.42, "unit": "µM"}]}]}
